Like-named read-outs stand apart in the source and are kept apart here.
What was measured:
[1] = test system: Clostridium difficile-associated diarrhea (CDAD); settings: stated for vancomycin and metronidazole treatments together; cited from earlier work
Excerpt: Despite having a clinical response rate of ~73 to 85%, vancomycin and metronidazole treatments are associated with recurrent CDAD in up to 45% of patients. Aggressive vancomycin and metronidazole treatment is also associated with disruption of the intestinal microbiota and can promote colonization by vancomycin-resistant enterococci, highlighting the need for novel treatment options. An ideal agent for the treatment of CDAD should be associated with low levels of systemic absorption, resulting in high concentrations of the drug in the colon, combined with a narrow spect ...

[2] = dogs; ref Yin N et al., ICAAC 2010, unpublished data; cited from earlier work
[3] = MAD, 500 mg BID oral, plasma, LC/MS/MS, LLOQ 1 ng/mL, median (range)
Description: (§1) Subjects were dosed BID, once in the morning and once in the evening, for 14 consecutive days, with at least 8 ounces of water and approximately 1 h after breakfast and 1 h after dinner.
(§2) During the MAD study, serial plasma samples for PK analysis were collected predose and at 30 min, 3, 6, and 9 h after the morning dose on days 1 and 14, and before the morning dose on days 4, 7, 10, and 12 (trough levels). […] Samples were analyzed using the same bioanalytical LC/MS/MS method as in the SAD study (LLOQ of 1 ng/mL).
(§3) Plasma PK parameters were calculated using standard noncompartmental methods in a validated version of WinNonlin (version 5.2, Pharsight, Mountain View, CA, USA). All concentrations that were below the LLOQ prior to the first detectable concentration were assigned a value of 0. All concentrations that were below the LLOQ after the first quantifiable concentration were designated as missing and replaced with a period. Actual sample collection times were used in the analysis of the concentration versus time profiles for individual subjects. Integration of plasma concentrations versus time was conducted using the linear-up, log-down function in WinNonlin. The following parameters were determined: maximum plasma concentration (Cmax), time of Cmax (Tmax), area under the concentration-time curve (AUC) from 0 to last measurable plasma concentration (AUC0-t), AUC from 0 to infinity (AUC0-∞), percent of dose excreted in the urine, and terminal exponential half-life (t½).

clinical [4] = settings: both, human, plasma, po, MAD, median (range); for AUC(0-t): AUC0–t; for Tmax: LLOQ 1 ng/mL
Description: as §1, §2, §3

[5] = not given; remark: listed apart in the source
[6] = rats; ref Yin N et al., ICAAC 2010, unpublished data; cited from earlier work
[7] = SAD, single oral dose, urine over a 7-day period, LC/MS/MS
Description: Any subject receiving at least one full dose of the study drug was included in the PK analysis population. PK analysis during the SAD study was conducted on serial plasma samples collected predose and at 30 min, 1, 2, 4, 6, 8, 12, 24, 48, and 72 h after dosing, and analyzed using a validated liquid chromatography-tandem mass spectrometry (LC/MS/MS) method, with a lower limit of quantification (LLOQ) of 1 ng/mL. Urine and stool samples were also collected during this period and analyzed using LC/MS/MS. Urine and feces were collected for 7 days after dose administration. The samples were analyzed using an API 5000 triple quadrupole mass spectrometer (Applied Biosystems/ScieEx, Concord, ON, Canada) using electrospray ionization in positive ion mode. […]
Plasma PK parameters were calculated using standard noncompartmental methods in a validated version of WinNonlin (version 5.2, Pharsight, Mountain View, CA, USA). […] All concentrations that were below the LLOQ after the first quantifiable concentration were designated as missing and replaced with a period. […] The following parameters were determined: maximum plasma concentration (Cmax), time of Cmax (Tmax), area under the concentration-time curve (AUC) from 0 to last measurable plasma concentration (AUC0-t), AUC from 0 to infinity (AUC0-∞), percent of dose excreted in the urine, and terminal exponential half-life (t½).

C. difficile = test system: C. difficile; parameters: method as in PMID 22183166, PMID 22391542; settings: cited from earlier work; for minimum inhibitory concentration at which 90% of the isolates were inhibited [MIC90]: in vitro, C. difficile isolates
[8] = after the first single oral dose, both SAD and MAD groups
Description: (§4) Randomization was assigned by blinded study personnel and stratified by gender to achieve an equal number of male and female subjects in each cohort. Subjects aged 18–49 years and 50–75 years were equally distributed in each dosing cohort.
(§5) Any subject receiving at least one full dose of the study drug was included in the PK analysis population. PK analysis during the SAD study was conducted on serial plasma samples collected predose and at 30 min, 1, 2, 4, 6, 8, 12, 24, 48, and 72 h after dosing, and analyzed using a validated liquid chromatography-tandem mass spectrometry (LC/MS/MS) method, with a lower limit of quantification (LLOQ) of 1 ng/mL. […] The samples were analyzed using an API 5000 triple quadrupole mass spectrometer (Applied Biosystems/ScieEx, Concord, ON, Canada) using electrospray ionization in positive ion mode. Analyst^TM software (version 1.4.2., Applied Biosystems, Foster City, CA, USA) was used for data acquisition. In total, 8 calibration solutions with a range of 1.00 ng/mL to 1000 ng/mL were used as internal standards in addition to a blank. Inter-assay bias was determined to be –2.6 to 2.5% with inter-assay precision of 3.9 to 9.4%.
as §3

clinical [9] = settings: both, human, plasma, po
Description: as §4, §5, §3

[10] = test system: initial and relapsing hamster CDAD; parameters: method as in PMID 22802252; settings: given orally; potency similar to vancomycin; cited from earlier work
[11] = MAD, subjects who received surotomycin (n = 24)
[12] = 250 mg, 250 mg BID oral, day 1, LC/MS/MS, cohort n = 8
[13] = 1000 mg, 1000 mg BID oral, day 1, LC/MS/MS, cohort n = 8
[14] = SAD, of the 32 subjects who received surotomycin
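Throughout, for Back pain (TEAE): human subjects dosed twice daily for 14 days, safety tracked through day 21 follow-up via reported adverse events, examinations, vital signs, ECG and laboratory tests.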
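Throughout, for Diarrhea (TEAE): single ascending dose cohorts, safety followed through day 8 via observed or reported adverse events, physical exam, vital signs, ECG and laboratory tests, all dosed subjects analysed.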
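Throughout, for General disorders and administration- site conditions (TEAE): human subjects dosed twice daily for 14 days, safety tracked through day 21 follow-up via reported adverse events, examinations, vital signs, ECG and laboratory tests.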
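Throughout, for Headache (TEAE): human subjects dosed twice daily for 14 days, safety tracked through day 21 follow-up via reported adverse events, examinations, vital signs, ECG and laboratory tests.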
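Throughout, for Investigations (TEAE): single ascending dose cohorts, safety followed through day 8 via observed or reported adverse events, physical exam, vital signs, ECG and laboratory tests, all dosed subjects analysed.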
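Throughout, for Musculoskeletal and connective tissue disorders (TEAE): human subjects dosed twice daily for 14 days, safety tracked through day 21 follow-up via reported adverse events, examinations, vital signs, ECG and laboratory tests.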
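Throughout, for Transaminase increased (TEAE): single ascending dose cohorts, safety followed through day 8 via observed or reported adverse events, physical exam, vital signs, ECG and laboratory tests, all dosed subjects analysed.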
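Throughout, for serious AEs: single ascending dose cohorts, safety followed through day 8 via observed or reported adverse events, physical exam, vital signs, ECG and laboratory tests, all dosed subjects analysed.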

## Cc1ncc([N+](=O)[O-])n1CCO [metronidazole]
[1]
  recurrent CDAD, share of patients: up to 45%

## CCCCCc1ccc(/C(C)=C/C(=O)N[C@@H](Cc2c[nH]c3ccccc23)C(=O)N[C@H](CC(N)=O)C(=O)N[C@@H](CC(=O)O)C(=O)N[C@@H]2C(=O)NCC(=O)N[C@@H](CCCN)C(=O)N[C@@H](CC(=O)O)C(=O)N[C@H](C)C(=O)N[C@@H](CC(=O)O)C(=O)NCC(=O)N[C@H](CO)C(=O)N[C@@H]([C@H](C)CC(=O)O)C(=O)N[C@@H](CC(=O)c3ccccc3N)C(=O)O[C@@H]2C)cc1 [surotomycin]
[2]
  intestinal absorption: < 1%
MAD 250 mg BID (n = 8)
  At least one TEAE: 4 (50.0) n (%)
  Back pain (TEAE): 1 (12.5) n (%)
  Gastrointestinal disorders (TEAE): 2 (25.0) n (%)
  General disorders and administration- site conditions (TEAE): 0 n (%)
  Headache (TEAE): 1 (12.5) n (%)
  Infections and infestations (TEAE): 0 n (%)
  Musculoskeletal and connective tissue disorders (TEAE): 2 (25.0) n (%)
  Nervous system disorders (TEAE): 2 (25.0) n (%)
  Oropharyngeal pain (TEAE): 0 n (%)
  Pruritus (TEAE): 0 n (%)
  Respiratory, thoracic, and mediastinal disorders (TEAE): 0 n (%)
  Skin and subcutaneous tissue disorders (TEAE): 0 n (%)
MAD 500 mg BID (n = 8)
  At least one TEAE: 6 (75.0) n (%)
  Back pain (TEAE): 1 (12.5) n (%)
  Gastrointestinal disorders (TEAE): 0 n (%)
  General disorders and administration- site conditions (TEAE): 0 n (%)
  Headache (TEAE): 1 (12.5) n (%)
  Infections and infestations (TEAE): 1 (12.5) n (%)
  Musculoskeletal and connective tissue disorders (TEAE): 2 (25.0) n (%)
  Nervous system disorders (TEAE): 1 (12.5) n (%)
  Oropharyngeal pain (TEAE): 1 (12.5) n (%)
  Pruritus (TEAE): 1 (12.5) n (%)
  Respiratory, thoracic, and mediastinal disorders (TEAE): 2 (25.0) n (%)
  Skin and subcutaneous tissue disorders (TEAE): 1 (12.5) n (%)
MAD 1000 mg BID (n = 8)
  At least one TEAE: 5 (62.5) n (%)
  Back pain (TEAE): 0 n (%)
  Gastrointestinal disorders (TEAE): 2 (25.0) n (%)
  General disorders and administration- site conditions (TEAE): 2 (25.0) n (%)
  Headache (TEAE): 0 n (%)
  Infections and infestations (TEAE): 1 (12.5) n (%)
  Musculoskeletal and connective tissue disorders (TEAE): 0 n (%)
  Nervous system disorders (TEAE): 2 (25.0) n (%)
  Oropharyngeal pain (TEAE): 1 (12.5) n (%)
  Pruritus (TEAE): 1 (12.5) n (%)
  Respiratory, thoracic, and mediastinal disorders (TEAE): 2 (25.0) n (%)
  Skin and subcutaneous tissue disorders (TEAE): 1 (12.5) n (%)
MAD, 500 mg BID, transient moderate anxiety and mild dyspnea 2 h after the 5th dose
  discontinuation due to AEs: One subject
MAD, 250, 500, 1000 mg BID
  tolerability: well tolerated
MAD, 250, 500, 1000 mg BID for 14 days
  severity of reported AEs: mild to moderate
MAD, all reported AEs
  relation of reported AEs to study drug: unrelated to the study drug
MAD, of the 24 subjects who received surotomycin
  headache: 2 (8.3%) n (%)
[11]
  back pain: 2 (8.3%) n (%)
  constipation: 2 (8.3%) n (%)
  oropharyngeal pain: 2 (8.3%) n (%)
  pruritus: 2 (8.3%) n (%)
[3]; day 1, cohort n = 8
  Tmax: 6.0 (6.0–9.0) h
[3]; day 14 morning dose
  Tmax: 6.0 (0.0–9.0) h
Clinical [4]; 250 mg, 250 mg BID oral, day 1, 0 to last measurable concentration, cohort n = 8
  AUC(0-t): 41.2 ng·h/mL
Clinical [4]; 250 mg, 250 mg BID oral, day 14, 0 to last measurable concentration
  AUC(0-t): 274 ng·h/mL
Clinical [4]; [12]
  Cmax: 6.8 ng/mL
  Tmax: 9 h
Clinical [4]; 250 mg, 250 mg BID oral, day 14, LC/MS/MS
  Cmax: 25.5 ng/mL
Clinical [4]; 250 mg, 250 mg BID oral, day 14 morning dose, LC/MS/MS
  Tmax: 4.5 h
Clinical [4]; 500 mg, 500 mg BID oral, day 1, 0 to last measurable concentration, cohort n = 8
  AUC(0-t): 49.4 ng·h/mL
Clinical [4]; 500 mg, 500 mg BID oral, day 14, 0 to last measurable concentration
  AUC(0-t): 313 ng·h/mL
Clinical [4]; 500 mg, 500 mg BID oral, day 1, LC/MS/MS, cohort n = 8
  Cmax: 11 ng/mL
Clinical [4]; 500 mg, 500 mg BID oral, day 14, LC/MS/MS
  Cmax: 37.6 ng/mL
Clinical [4]; 1000 mg, 1000 mg BID oral, day 1, 0 to last measurable concentration, cohort n = 8
  AUC(0-t): 118 ng·h/mL
Clinical [4]; 1000 mg, 1000 mg BID oral, day 14, 0 to last measurable concentration
  AUC(0-t): 771 ng·h/mL
Clinical [4]; [13]
  Cmax: 21 ng/mL
  Tmax: 7.5 h
Clinical [4]; 1000 mg, 1000 mg BID oral, day 14, LC/MS/MS
  Cmax: 93.5 ng/mL
Clinical [4]; 1000 mg, 1000 mg BID oral, day 14 morning dose, LC/MS/MS
  Tmax: 1.8 h
[5]; SAD 500 mg (n = 8)
  At least one TEAE: 3 (37.5) n (%)
  Diarrhea (TEAE): 1 (12.5) n (%)
  Gastrointestinal disorders (TEAE): 2 (25.0) n (%)
  Infections and infestations (TEAE): 0 n (%)
  Investigations (TEAE): 0 n (%)
  Transaminase increased (TEAE): 0 n (%)
[5]; SAD 1000 mg (n = 8)
  At least one TEAE: 0 n (%)
  Diarrhea (TEAE): 0 n (%)
  Gastrointestinal disorders (TEAE): 0 n (%)
  Infections and infestations (TEAE): 0 n (%)
  Investigations (TEAE): 0 n (%)
  Transaminase increased (TEAE): 0 n (%)
[5]; SAD 2000 mg (n = 8)
  At least one TEAE: 5 (62.5) n (%)
  Diarrhea (TEAE): 3 (37.5) n (%)
  Gastrointestinal disorders (TEAE): 3 (37.5) n (%)
  Infections and infestations (TEAE): 0 n (%)
  Investigations (TEAE): 1 (12.5) n (%)
  Transaminase increased (TEAE): 1 (12.5) n (%)
[5]; SAD 4000 mg (n = 8)
  At least one TEAE: 3 (37.5) n (%)
  Diarrhea (TEAE): 1 (12.5) n (%)
  Gastrointestinal disorders (TEAE): 1 (12.5) n (%)
  Infections and infestations (TEAE): 2 (25.0) n (%)
  Investigations (TEAE): 1 (12.5) n (%)
  Transaminase increased (TEAE): 1 (12.5) n (%)
[5]; SAD group, none discontinued due to AEs
  serious AEs: No serious AEs
[5]; SAD, all surotomycin subjects (n = 32)
  treatment-related diarrhea: 5 (15.6%) n (%)
[5]; [14]
  increased transaminases: 2 (6.3%) n (%)
  subjects with AEs assessed as treatment-related: 9 (28.1%) n (%)
[5]; SAD, single oral doses 500, 1000, 2000 or 4000 mg
  tolerability: well tolerated
[5]; SAD, single oral doses 500-4000 mg
  severity of reported AEs: mild to moderate
[6]
  bioavailability after oral administration: very low
  intestinal absorption: < 1%
[7]
  median cumulative amount of the administered dose recovered in the urine: < 0.01%
C. difficile; against C. difficile, by MIC90
  in vitro potency relative to vancomycin: fourfold greater
C. difficile
  minimum inhibitory concentration at which 90% of the isolates were inhibited [MIC90]: 0.5 µg/mL
[8]
  time of peak median plasma concentration after the first dose: 6 to 12 h
Clinical [9]; 500 mg
  AUC(0-inf): 317 ng·h/mL
  AUC(0-t): 260 ng·h/mL
  Cmax: 10.5 ng/mL
  Tmax: 6 h
  half-life: 18.3 h
Clinical [9]; 1000 mg
  AUC(0-inf): 702 ng·h/mL
  AUC(0-t): 664 ng·h/mL
  Cmax: 21.5 ng/mL
  Tmax: 10 h
  half-life: 21.1 h
Clinical [9]; 2000 mg
  AUC(0-inf): 2080 ng·h/mL
  AUC(0-t): 1860 ng·h/mL
  Cmax: 66.6 ng/mL
  Tmax: 8 h
  half-life: 16.3 h
Clinical [9]; 4000 mg
  AUC(0-inf): 2570 ng·h/mL
  AUC(0-t): 2480 ng·h/mL
  Cmax: 86.7 ng/mL
  Tmax: 12 h
  half-life: 14.8 h
[10]
  efficacy against initial and relapsing hamster CDAD: highly effective

## CN[C@H](CC(C)C)C(=O)N[C@H]1C(=O)N[C@@H](CC(N)=O)C(=O)N[C@H]2C(=O)N[C@H]3C(=O)N[C@H](C(=O)N[C@H](C(=O)O)c4cc(O)cc(O)c4-c4cc3ccc4O)[C@H](O)c3ccc(c(Cl)c3)Oc3cc2cc(c3O[C@@H]2O[C@H](CO)[C@@H](O)[C@H](O)[C@H]2O[C@H]2C[C@](C)(N)[C@H](O)[C@H](C)O2)Oc2ccc(cc2Cl)[C@H]1O [vancomycin, reference compound]
[1]
  recurrent CDAD, share of patients: up to 45%
C. difficile
  minimum inhibitory concentration at which 90% of the isolates were inhibited [MIC90]: 2.0 µg/mL
